Reference: the supplement of paper PMC11451515

Tested on: NOMO1
Assay: cell viability relative to DMSO control; higher = less cytotoxic
Conditions: 48 h
Summary of the method: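 Viability, reported as a per-plate percentage of DMSO wells with cell-free wells as background, came from CellTiter-Glo One luminescence. Reading took place after 48 h at 37°C. Before that, NOMO1 or SEM (500 cells/well) or P12-Ichikawa (1000 cells/well) leukemia cells, adapted for at least four passages in each medium, were seeded in 1536-well plates (5 μl) and pin-dosed with library compounds in DMSO, 47 μM to 0.79 nM over 11 threefold points.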

[1] = HPLM + 10% dialyzed FBS, 0.000781 µM
[2] = HPLM + 10% dialyzed FBS, 0.00234 µM
[3] = HPLM + 10% dialyzed FBS, 0.00702 µM
[4] = HPLM + 10% dialyzed FBS, 0.0211 µM
[5] = HPLM + 10% dialyzed FBS, 0.0632 µM
[6] = HPLM + 10% dialyzed FBS, 0.19 µM
[7] = HPLM + 10% dialyzed FBS, 0.569 µM
[8] = HPLM + 10% dialyzed FBS, 1.71 µM
[9] = HPLM + 10% dialyzed FBS, 5.12 µM
[10] = HPLM + 10% dialyzed FBS, 15.4 µM
[11] = HPLM + 10% dialyzed FBS, 46.1 µM
[12] = RPMI 5 mM glucose + 10% FBS, 0.000781 µM
[13] = RPMI 5 mM glucose + 10% FBS, 0.00234 µM
[14] = RPMI 5 mM glucose + 10% FBS, 0.00702 µM
[15] = RPMI 5 mM glucose + 10% FBS, 0.0211 µM
[16] = RPMI 5 mM glucose + 10% FBS, 0.0632 µM
[17] = RPMI 5 mM glucose + 10% FBS, 0.19 µM
[18] = RPMI 5 mM glucose + 10% FBS, 0.569 µM
[19] = RPMI 5 mM glucose + 10% FBS, 1.71 µM
[20] = RPMI 5 mM glucose + 10% FBS, 5.12 µM
[21] = RPMI 5 mM glucose + 10% FBS, 15.4 µM
[22] = RPMI 5 mM glucose + 10% FBS, 46.1 µM
[23] = RPMI 5 mM glucose + 10% dialyzed FBS, 0.000781 µM
[24] = RPMI 5 mM glucose + 10% dialyzed FBS, 0.00234 µM
[25] = RPMI 5 mM glucose + 10% dialyzed FBS, 0.00702 µM
[26] = RPMI 5 mM glucose + 10% dialyzed FBS, 0.0211 µM
[27] = RPMI 5 mM glucose + 10% dialyzed FBS, 0.0632 µM
[28] = RPMI 5 mM glucose + 10% dialyzed FBS, 0.19 µM
[29] = RPMI 5 mM glucose + 10% dialyzed FBS, 0.569 µM
[30] = RPMI 5 mM glucose + 10% dialyzed FBS, 1.71 µM
[31] = RPMI 5 mM glucose + 10% dialyzed FBS, 5.12 µM
[32] = RPMI 5 mM glucose + 10% dialyzed FBS, 15.4 µM
[33] = RPMI 5 mM glucose + 10% dialyzed FBS, 46.1 µM

| SMILES | cell viability [1] | cell viability [2] | cell viability [3] | cell viability [4] | cell viability [5] | cell viability [6] | cell viability [7] | cell viability [8] | cell viability [9] | cell viability [10] | cell viability [11] | cell viability [12] | cell viability [13] | cell viability [14] | cell viability [15] | cell viability [16] | cell viability [17] | cell viability [18] | cell viability [19] | cell viability [20] | cell viability [21] | cell viability [22] | cell viability [23] | cell viability [24] | cell viability [25] | cell viability [26] | cell viability [27] | cell viability [28] | cell viability [29] | cell viability [30] | cell viability [31] | cell viability [32] | cell viability [33] |
| --- | --- | --- | --- | --- | --- | --- | --- | --- | --- | --- | --- | --- | --- | --- | --- | --- | --- | --- | --- | --- | --- | --- | --- | --- | --- | --- | --- | --- | --- | --- | --- | --- | --- |
| CC(C)C(C)/C=C/C(C)C1CCC2C3=CC=C4CC(O)CCC4(C)C3CCC21C (stereo not drawn) | 104% | 101% | 115% | 111% | 104% | 99.8% | 112% | 106% | 111% | 110% | 94.8% | 86.5% | 97.2% | 90.6% | 88.4% | 96.7% | 88.6% | 89.9% | 92% | 85.1% | 83% | 82.7% | 99.1% | 88.7% | 92.4% | 89.8% | 99.7% | 104% | 94.6% | 97.7% | 86.4% | 81.6% | 90.4% |
| CCC1(C)CC(=O)NC1=O (stereo not drawn) | 114% | 116% | 105% | 118% | 102% | 111% | 104% | 93.9% | 105% | 86.7% | 84.2% | 85.5% | 89.2% | 84.7% | 87.5% | 89.2% | 92.2% | 99.2% | 81.7% | 90.3% | 94.5% | 77.4% | 104% | 98.1% | 96.7% | 94.3% | 81.3% | 101% | 98.4% | 92.7% | 96.6% | 88.2% | 87.6% |
| CC(C)OC(=O)OCOP(=O)(CO[C@H](C)Cn1cnc2c(N)ncnc21)OCOC(=O)OC(C)C.O=C(O)C=CC(=O)O | 98.7% | 120% | 120% | 105% | 133% | 129% | 126% | 123% | 104% | 89.6% | 53.1% | 95.8% | 121% | 125% | 116% | 115% | 128% | 109% | 118% | 115% | 103% | 38.6% | 117% | 117% | 112% | 117% | 124% | 122% | 128% | 124% | 114% | 102% | 15.1% |
| COc1cc2c(cc1-c1c(C)noc1C)ncc1[nH]c(=O)n([C@H](C)c3ccccn3)c12 | – | – | – | – | – | – | – | – | – | – | – | 122% | 110% | 114% | 115% | 111% | 99.8% | 108% | 98.2% | 30.8% | 30.5% | 22% | 114% | 124% | 98.3% | 118% | 124% | 117% | 118% | 102% | 30.1% | 35.6% | 22.7% |
| Cc1ccccc1N1C(=O)c2cc([S+](N)(=O)[O-])c(Cl)cc2NC1C (stereo not drawn) | 123% | 109% | 121% | 117% | 106% | 120% | 110% | 113% | 37.9% | 82.7% | 123% | 131% | 113% | 124% | 116% | 114% | 118% | 120% | 122% | 28.1% | 94.5% | 107% | 114% | 128% | 124% | 130% | 128% | 119% | 116% | 119% | 35.6% | 77.8% | 109% |
| FC(F)(F)c1ccc(/C=C/c2nc(COc3ccc(CCCCn4ccnn4)cc3)co2)cc1 | 127% | 125% | 122% | 127% | 120% | 104% | 107% | 79.4% | 27.7% | 25.2% | 22.6% | 125% | 122% | 128% | 137% | 134% | 127% | 126% | 92.1% | 20.5% | 15.3% | 13.1% | 122% | 143% | 122% | 124% | 124% | 116% | 130% | 128% | 27.8% | 24.1% | 19.9% |
| CNC1CCC(N(Cc2cccc(-c3ccncc3)c2)C(=O)c2sc3ccccc3c2Cl)CC1 (stereo not drawn) | 74.1% | 92.9% | 104% | 113% | 107% | 99% | 101% | 36.1% | 6.61% | 7.33% | 1.5% | 90.8% | 85.3% | 85.5% | 93% | 86% | 90.6% | 92.4% | 87.7% | 11.3% | 5.87% | 1.62% | 79.3% | 88.3% | 93.2% | 87% | 84.7% | 97.8% | 95.9% | 102% | 55% | 60.4% | 1.53% |
| Cc1cc(OCCCc2c(C(=O)O)n(Cc3cccnc3)c3c(-c4c(COc5ccc(N6CCN([S+](C)(=O)[O-])CC6)cc5)nn(C)c4C)cccc23)cc(C)c1Cl | 92.9% | 112% | 98.3% | 107% | 100% | 104% | 100% | 92.7% | 92.1% | 87% | 71.8% | 86% | 87.7% | 94.8% | 89.8% | 95.6% | 90.8% | 87.7% | 91.5% | 82.4% | 78.5% | 74.9% | 92.4% | 90.5% | 98.1% | 98.4% | 95.8% | 86.1% | 87.7% | 98.2% | 96.7% | 91.2% | 78.6% |
